{"source": "patent US8653043B2", "about": "“Enhanced neoglycosides through neoglycosylation and methods of use thereof” (Wisconsin Alumni Research Foundation, priority 2009, dated 2014)", "key": {"human cancer cell lines": {"tested_on": "human cancer cell lines", "test": "Cytotoxicity assay (calcein AM / CellTiter-Glo) in carcinoma cell lines", "format": "cell-based", "settings": "for improvement of cytotoxic activity over the parent natural product: versus parent 1, breast, colorectal, lung and prostate carcinoma lines; for potency improvement of amide-linked versus ester-linked neoglycoside: ABA compound compared with ester analog bearing the same sugar; for cytotoxic potency compared to parent 1: in one or more cell lines, comparison with betulinic acid (1)", "description": "The cytoxicity of the library members was assessed in seven human cancer cell lines representing a broad range of carcinomas including breast, colorectal, CNS, lung and prostate.\nThe cytoxicity of ABA1-5 was evaluated in human cell lines of breast, colorectal, lung and prostate carcinomas.\nTesting was performed by the Keck-UWCCC Small Molecule Screening Facility (Madison, Wis.). Carcinoma cell lines were maintained and harvested as previously reported, along with compound handling and assay set up.^21 Cells were plated in 50 μL volumes in 384-well clear bottom tissue culture plates. Serial dilutions of 30 mM DMSO compound stock solutions were done in 96-well plates using a BioTek Precision XS liquid handler (Winooski, Vt.) to a concentration 100× greater than that of the most dilute assay. Final dilutions were performed in a 384-well plate in quadruplicate using a Beckman-Coulter Biomek FX liquid handler with a 384 channel pipetting head (Fullerton, Calif.) and were stored at −20° C. when not in use. Compounds were then added to the culture plates by the Biomek FX handler and were incubated at 37° C. for 72 h. The calcein AM reagent (acetoxymethyl ester; 30 μL, 10 μM) was then added, the cells were incubated for 30 m at 37° C., and plates were read for fluorescent emission (535 nm). Cell titer-glo reagent (15 μL; Promega Corp., Madison, Wis.) was added and the plates incubated for 10 m at room temperature with gentle agitation to lyse the cells. Each plate was reexamined for luminescence to verify inhibition. IC50 values for cytotoxicity were determined using XLift 4.2 as previously reported.^21"}, "[1]": {"tested_on": "HIV-1 virus (IIIB strain)", "test": "Anti-HIV-1 cytoprotection (CPE) assay in CEM-SS cells", "format": "cell-based", "settings": "1 μM; HIV-1 IIIB-infected CEM-SS cells", "description": "To assess the corresponding impact of differential glycosylation upon antiviral activity, the entire set of compounds was subsequently tested in a single dose (10 μM) anti-HIV-1 assay against CEM-SS cells (i.e., CD4+ T lymphocytes) infected with the IIIB strain of HIV-1. Compound efficacy was determined by the percent increase of cytoprotective effect (CPE), which is prevention of intercellular virus replication, over untreated HIV-1-infected cells.\nBoth cells and virus were mixed with compound (10 μM & 1 μM for ABA1-5 and […] for all others) in triplicate in 96-well plates and incubated for six days at 37° C. Compound cytoprotection and cytotoxicity were evaluated using MTS tetrazolium dye (Promega Corp., Madison, Wis.) as previously reported.^23 Each assay plate used the following controls: cells only, cells/virus, cells/compound, compound only. The reverse transcriptase inhibitor AZT and protease inhibitor Indinavir were included as positive controls."}}}
{"smiles": "C=C(C)[C@@H]1CC[C@]2(C(=O)O)CC[C@]3(C)[C@H](CC[C@@H]4[C@@]5(C)CC[C@H](NC(=O)CN(OC)[C@@H]6O[C@H](CO)[C@@H](O)[C@@H](O)[C@@H]6O)C(C)(C)[C@@H]5CC[C@]43C)[C@@H]12", "note": "[ABA1, (3S)-N-(N′-Methoxy-N′-β-D-altrosylglycyl)betulinic acid]", "values": [{"measurement": "improvement of cytotoxic activity over the parent natural product", "setting": "human cancer cell lines", "value": "~2", "unit": "fold"}]}
{"smiles": "C=C(C)[C@@H]1CC[C@]2(C(=O)O)CC[C@]3(C)[C@H](CC[C@@H]4[C@@]5(C)CC[C@H](NC(=O)CN(OC)C6OC[C@H](O)[C@H](O)[C@@H]6O)C(C)(C)[C@@H]5CC[C@]43C)[C@@H]12", "note": "(stereo partly drawn) [ABA4, (3S)-N-(N′-Methoxy-N′-L-ribosylglycyl)betulinic acid]", "values": [{"measurement": "potency improvement of amide-linked versus ester-linked neoglycoside", "setting": "human cancer cell lines", "value": "≥ 6", "unit": "fold"}, {"measurement": "improvement of cytotoxic activity over the parent natural product", "setting": "human cancer cell lines", "value": "~2", "unit": "fold"}]}
{"smiles": "C=C(C)[C@@H]1CC[C@]2(C(=O)O)CC[C@]3(C)[C@H](CC[C@@H]4[C@@]5(C)CC[C@H](NC(=O)CN(OC)C6OC[C@@H](O)[C@H](O)[C@H]6O)C(C)(C)[C@@H]5CC[C@]43C)[C@@H]12", "note": "(stereo partly drawn) [ABA5, (3S)-N-(N′-Methoxy-N′-D-xylosylglycyl)betulinic acid]", "values": [{"measurement": "potency improvement of amide-linked versus ester-linked neoglycoside", "setting": "human cancer cell lines", "value": "≤ 2", "unit": "fold"}, {"measurement": "improvement of cytotoxic activity over the parent natural product", "setting": "human cancer cell lines", "value": "~2", "unit": "fold"}]}
{"smiles": "C=C(C)[C@@H]1CC[C@]2(C(=O)O)CC[C@]3(C)[C@H](CC[C@@H]4[C@@]5(C)CC[C@H](OC(=O)CN(OC)[C@@H]6O[C@H](CO)[C@@H](O)[C@@H](O)[C@H]6O)C(C)(C)[C@@H]5CC[C@]43C)[C@@H]12", "note": "[BA1, (3S)-O-(N-Methoxy-N-β-D-allosylglycyl)betulinic acid]", "values": [{"measurement": "cytotoxic potency compared to parent 1", "setting": "human cancer cell lines", "value": "equipotent"}]}
{"smiles": "C=C(C)[C@@H]1CC[C@]2(C(=O)O)CC[C@]3(C)[C@H](CC[C@@H]4[C@@]5(C)CC[C@H](OC(=O)CN(OC)C6O[C@@H](C)[C@@H](O)[C@@H](O)[C@@H]6O)C(C)(C)[C@@H]5CC[C@]43C)[C@@H]12", "note": "(stereo partly drawn) [BA9, (3S)-O-(N-Methoxy-N-L-fucosylglycyl)betulinic acid]", "values": [{"measurement": "cytotoxic potency compared to parent 1", "setting": "human cancer cell lines", "value": "equipotent"}]}
{"smiles": "C=C(C)[C@@H]1CC[C@]2(C(=O)O)CC[C@]3(C)C(CCC4[C@@]5(C)CC[C@H](OC(=O)CN(OC)C6O[C@@H](C)[C@H](O)[C@@H](O)[C@H]6O)C(C)(C)C5CC[C@]43C)C12", "note": "(stereo partly drawn) [BA27]", "values": [{"measurement": "IC50", "setting": "human cancer cell lines; ester-linked BA series, 72 h incubation, cell line not specified / at least one cell line", "value": "≥ 25", "unit": "µM"}]}
{"smiles": "C=C(C)[C@@H]1CC[C@]2(C(=O)O)CC[C@]3(C)C(CCC4[C@@]5(C)CC[C@H](OC(=O)CN(OC)[C@H]6OC[C@H](O)[C@@H](O)[C@@H]6O)C(C)(C)C5CC[C@]43C)C12", "note": "(stereo partly drawn) [BA32, (3S)-O-(N-Methoxy-N-β-L-xylosylglycyl)betulinic acid]", "values": [{"measurement": "cytotoxic potency compared to parent 1", "setting": "human cancer cell lines", "value": "equipotent"}]}
{"smiles": "C=C(C)[C@@H]1CC[C@]2(C(=O)O)CC[C@]3(C)[C@H](CCC4[C@@]5(C)CC[C@H](OC(=O)CNOC)C(C)(C)C5CC[C@]43C)C12", "note": "(stereo partly drawn) [compound 7, (3S)-O-(N-Methoxyglycyl)betulinic acid]", "values": [{"measurement": "cytotoxic potency compared to parent 1", "setting": "human cancer cell lines", "value": "relatively similar potencies"}]}
{"smiles": "C=C(C)[C@@H]1CC[C@]2(C(=O)O)CC[C@]3(C)[C@H](CC[C@@H]4[C@@]5(C)CC[C@H](NC(=O)CNOC)C(C)(C)[C@@H]5CC[C@]43C)[C@@H]12", "note": "[compound 10, (3S)-N-(N′-Methoxyglycyl)aminobetulinic acid]", "values": [{"measurement": "cytotoxic potency compared to parent 1", "setting": "human cancer cell lines", "value": "relatively similar potencies"}, {"measurement": "increase in CPE", "setting": "[1]", "value": "no noticeable activity"}]}
